Test results: article PMC12333940, “A prometabolite strategy inhibits cardiometabolic disease in an ApoE^–/– murine model of atherosclerosis” (JCI Insight, 2025)
Several values for one entry are separate records, joined by “and”; a condition that tells them apart may be missing. Equal values may be shown once.

Legend:
RAW 264.7 macrophages [1] = assay: Cell viability assay (MTS); assay type: cell-based; details: for Viability: 24 hours
Procedure: CellTiter 96 AQueous one Solution Cell Proliferation Assay (MTS) (Promega, G3582) was used according to the manufacturer’s instructions to analyze cytotoxicity of SerBut and NaBut at various concentrations (0.15–12 mM) in RAW 264.7 macrophages. Viability values were normalized to untreated cells (100%) and Triton X-100–treated cells (0%). Since absorbance is directly proportional to the number of living cells in culture, values greater than 100% indicate cell growth compared with controls.

ApoE^–/– mice on an HFD = assay: Flow cytometry of blood, lymph nodes and spleen; assay type: in vivo, mouse; parameters: Treg / Th17 / F480+CD11b+ Macrophages / iNOS+ Macs / Arg1+ Macs: unit not given here; details: for Arg1+ Macs / F480+CD11b+ Macrophages / Th17 / Th17/Treg / Treg / iNOS+ Macs / Blood Neutrophils: CD11b+Ly6G+ %CD45: individual mice
Procedure: SerBut water was pH adjusted using 10 M NaOH to a final pH of 7.4. […] After 6 weeks, mice were euthanized. The lMLNs, ILNs, spleen, heart, and aorta were harvested and processed for flow cytometry analysis ([67]). […] The remaining liver was fixed with 4% paraformaldehyde and embedded in paraffin for histological analysis.
Flow cytometry was performed using a BD LSRFortessa or a Cytek Aurora full-spectrum cytometer.

RAW 264.7 macrophages [2] = assay: LEGENDPlex cytokines in supernatant of LPS-stimulated RAW 264.7; assay type: cell-based; parameters: TNFa (Legendplex) / MCP-1 (Legendplex) / IL-10 (Legendplex) / IL-6 (Legendplex): unit not given here; details: for IL-10: compared with LPS-stimulated controls
Procedure: RAW 264.7 (ATCC, TIB-71) macrophages were cultured at 37°C and 5% CO2 in DMEM (Gibco) supplemented with 1 mM HEPES, 1 mM sodium pyruvate, 10% FBS, and penicillin/streptomycin. Cells were plated in round-bottom 96-well plates at 100,000 cells per well and incubated with different concentrations of either NaBut or SerBut (0.15–12 mM) for 24 hours. Cells were then rinsed with PBS and then stimulated with 200 ng/mL LPS in media for 6 hours. The cell culture supernatant was collected and analyzed by LEGENDPlex to analyze the concentrations of cytokines (BioLegend). Cell phenotype was analyzed using flow cytometry (Cytek Aurora).

[3] = Biodistribution of free butyrate in intestinal tissue and contents, C57BL/6 mice; assay type: in vivo
Description: NaBut is limited in its translation by butyrate’s rapid consumption by colonocytes as a primary energy source in the distal gut. We propose that the enhanced biodistribution of free, active butyrate (following cleavage from serine) in SerBut-treated mice is due to small intestinal escape from the gut via amino acid transporters. To probe this hypothesis, we repeated the experiment and analyzed the biodistribution of free active butyrate in distinct sections of the intestinal tissue and the intestinal contents (Figure 2, K and L, and Supplemental Figure 2). Because neither ApoE^–/– nor HFD feeding would be expected to change amino acid receptor expression or function in the intestine, this was performed in C57BL/6 mice on a normal diet. […] We saw no increase in butyrate in the colon tissue (Figure 2P).
Samples were prepared and derivatized as described previously ([28]). […] The internal standard, 4-methylvaleric acid, was added.
Injection volume: 5.0 μL. Flow rate: 0.5 mL/min.

[4] = C57BL/6, normal chow, 3 hr after single gavage

SMILES | Arg1+ Macs (ApoE^–/– mice on an HFD; Inguinal Lymph Node Flow) | F480+CD11b+ Macrophages (ApoE^–/– mice on an HFD; Inguinal Lymph Node Flow) | Th17 (ApoE^–/– mice on an HFD; Inguinal Lymph Node Flow) | Th17/Treg (ApoE^–/– mice on an HFD; Inguinal Lymph Node Flow) | Treg (ApoE^–/– mice on an HFD; Inguinal Lymph Node Flow) | iNOS+ Macs (ApoE^–/– mice on an HFD; Inguinal Lymph Node Flow) | Arg1+ Macs (ApoE^–/– mice on an HFD; Mesenteric Lymph Node Flow) | F480+CD11b+ Macrophages (ApoE^–/– mice on an HFD; Mesenteric Lymph Node Flow) | Th17 (ApoE^–/– mice on an HFD; Mesenteric Lymph Node Flow) | Th17/Treg (ApoE^–/– mice on an HFD; Mesenteric Lymph Node Flow) | Treg (ApoE^–/– mice on an HFD; Mesenteric Lymph Node Flow) | iNOS+ Macs (ApoE^–/– mice on an HFD; Mesenteric Lymph Node Flow) | Th17 (ApoE^–/– mice on an HFD; Spleen Flow) | Th17/Treg (ApoE^–/– mice on an HFD; Spleen Flow) | Treg (ApoE^–/– mice on an HFD; Spleen Flow) | Blood Neutrophils: CD11b+Ly6G+ %CD45 (ApoE^–/– mice on an HFD) | TNFa (Legendplex) (RAW 264.7 macrophages [2]; 1.3 mM 24 h, then LPS 6 h) | IL-10 (RAW 264.7 macrophages [2]) | free butyrate, Lower SI Contents [3, 4] | also measured
CCCC(=O)[O-].[Na+] [NaBut, sodium butyrate, reference compound] | 1.5 and 2.34 and 2.81 and 2.38 | 0.62 and 0.34 and 0.21 and 0.27 | 4.92 and 5.5 and 5.4 and 13 and 8.24 and 3.69 and 4.14 and 8.43 and 4.57 and 3.89 | 0.4278 and 0.4365 and 0.4463 and 1.161 and 0.7423 and 0.2976 and 0.345 and 0.4153 and 0.3288 and 0.2701 | 11.5 and 12.6 and 12.1 and 11.2 and 11.1 and 12.4 and 12 and 20.3 and 13.9 and 14.4 | 2.2 and 5.7 and 2.33 and 5.26 | 1.44 and 1.98 and 1.72 and 1.71 | 11.6 and 5.7 and 6.38 and 10.4 | 11.7 and 14.4 and 12.2 and 12.1 and 11.3 and 18.4 and 15.3 | 1.054 and 1.385 and 0.8652 and 1.008 and 0.8968 and 1.108 and 0.8895 | 11.1 and 10.4 and 14.1 and 12 and 12.6 and 16.6 and 17.2 | 2.42 and 0.43 and 0.69 and 0.94 | 1.11 and 0.85 and 1.17 and 1.19 and 1.09 and 1.43 and 1.41 and 1.08 and 1.22 and 0.97 | 0.1535 and 0.1111 and 0.1425 and 0.1357 and 0.131 and 0.1783 and 0.1653 and 0.135 and 0.1432 and 0.1325 | 7.23 and 7.65 and 8.21 and 8.77 and 8.32 and 8.02 and 8.53 and 8 and 8.52 and 7.32 | 7.65 %CD45 and 9.07 %CD45 and 17.4 %CD45 and 8.36 %CD45 and 14.3 %CD45 and 19.3 %CD45 and 20.8 %CD45 and 17.3 %CD45 and 19.5 %CD45 and 14.8 %CD45 and 22.8 %CD45 and 4.26 %CD45 and 16.8 %CD45 | 1902.56 and 1870.65 and 1906.93 and 1713.88 and 1376.2 and 1809.49 | significantly increased | 41.6523 µg/g and 45.1024 µg/g and 60.4329 µg/g and 68.0864 µg/g | cell viability (RAW 264.7 macrophages [1]; at 4 mM and above): significantly reduced cell viability; Th17/Treg cell ratio (ApoE^–/– mice on an HFD; spleen): lower Th17/Treg cell ratio; IL-10 (Legendplex) (RAW 264.7 macrophages [2]; 0.15 mM 24 h, then LPS 6 h): 8.317 and 9.29 and 13.129 and 8.37; MCP-1 (Legendplex) (RAW 264.7 macrophages [2]; 0.15 mM 24 h, then LPS 6 h): 1660.24 and 2264.24 and 1687.05 and 2929.5 and 2357.33 and 2465.59; TNFa (Legendplex) (RAW 264.7 macrophages [2]; 0.15 mM 24 h, then LPS 6 h): 3467.9 and 2909.16 and 2378.78 and 3607.94 and 2472.11 and 3683.23; MCP-1 (Legendplex) (RAW 264.7 macrophages [2]; 0.45 mM 24 h, then LPS 6 h): 2112.3 and 1670.81 and 2406.34 and 3206.1 and 2298.22 and 2148.28; TNFa (Legendplex) (RAW 264.7 macrophages [2]; 0.45 mM 24 h, then LPS 6 h): 3244.2 and 3100.16 and 2160.11 and 2490.85 and 3404.75 and 4226.6; IL-6 (Legendplex) (RAW 264.7 macrophages [2]; 1.3 mM 24 h, then LPS 6 h): 176.681 and 160.514 and 142.105 and 263.619 and 136.873 and 198.799; IL-10 (Legendplex) (RAW 264.7 macrophages [2]; 1.3 mM 24 h, then LPS 6 h): 98.389 and 140.989 and 108.157 and 179.138 and 132.561 and 143.069; MCP-1 (Legendplex) (RAW 264.7 macrophages [2]; 1.3 mM 24 h, then LPS 6 h): 906.304 and 776.372 and 770.115 and 1009 and 667.135 and 799.178; free butyrate, Colon Contents [3, 4]: 384.57 µg/g
CCCC(=O)OC[C@H](N)C(=O)O [SerBut, O-butyryl-L-serine] | 3.53 and 2.72 and 2.64 and 3.19 and 3.9 and 5.62 and 3.61 and 5.94 and 4.82 and 4.83 and 3.4 and 2.08 and 3.78 and 5.04 | 0.56 and 0.54 and 0.36 and 0.83 and 0.61 and 1.4 and 0.33 and 0.64 and 0.46 and 0.86 and 0.43 and 0.29 | 7.49 and 5.92 and 1.67 and 2.37 and 3.33 and 2.23 and 8.03 and 16.8 and 2.7 | 0.5095 and 0.3947 and 0.09489 and 0.1274 and 0.2068 and 0.1161 and 0.4294 and 1.037 and 0.1588 | 14.7 and 15 and 17.6 and 18.6 and 16.1 and 19.2 and 18.7 and 16.2 and 17 | 5.43 and 3.21 and 3.87 and 2.26 and 2.24 and 2.49 and 6.09 and 2.15 and 4.59 and 2.91 and 7.23 and 2.89 and 7.07 and 5.7 | 3.56 and 1.85 and 2.39 and 1.1 and 1.07 and 1.12 and 0.97 and 1.19 and 1.91 and 0.93 and 1.08 and 1.16 and 0.95 | 5.85 and 7.28 and 6.98 and 8.63 and 11.2 and 7.11 and 5.47 and 7.35 and 5.84 and 3.45 and 4.72 and 5.77 and 7.09 | 7.78 and 13.7 and 14.7 and 8.43 and 9.66 and 19.2 and 12 | 0.5329 and 0.6372 and 0.9423 and 0.493 and 0.6114 and 1.091 and 0.7843 | 14.6 and 21.5 and 15.6 and 17.1 and 15.8 and 17.6 and 15.3 | 0.64 and 1 and 0.46 and 0.71 and 0.58 and 0.74 and 0.6 and 0.68 and 1.54 and 0.88 and 0.65 and 0.69 | 0.83 and 1.07 and 1.3 and 0.97 and 1.12 and 1.08 and 1 and 1.34 | 0.115 and 0.1219 and 0.1671 and 0.1127 and 0.16 and 0.145 and 0.1264 and 0.1603 | 7.22 and 8.78 and 7.78 and 8.61 and 7 and 7.45 and 7.91 and 8.36 | 12.2 %CD45 and 10.2 %CD45 and 11.9 %CD45 and 16 %CD45 and 15.3 %CD45 and 6.9 %CD45 and 6.35 %CD45 and 13.7 %CD45 and 8 %CD45 and 10.6 %CD45 and 17.9 %CD45 and 2.21 %CD45 and 2.25 %CD45 and 7.63 %CD45 | 4133.05 and 4500 and 3675.16 and 3268.68 and 3195.27 and 3191.26 | trending increase | 61.2227 µg/g and 52.7128 µg/g and 33.2508 µg/g and 35.0221 µg/g | Viability (RAW 264.7 macrophages [1]; 0.15 mM, normalized to untreated (100%) and Triton X-100 (0%)): 125.153% and 106.544% and 100.92%; Viability (RAW 264.7 macrophages [1]; 0.44 mM): 107.157% and 122.597% and 96.9325%; Viability (RAW 264.7 macrophages [1]; 1.33 mM): 115.337% and 91.7178% and 91.1043%; Viability (RAW 264.7 macrophages [1]; 4 mM): 117.28% and 100.204% and 101.431%; Viability (RAW 264.7 macrophages [1]; 12 mM): 121.575% and 99.0798% and 102.249%; cytotoxicity (RAW 264.7 macrophages [1]; even at 12 mM): no cytotoxicity; frequency of circulating Ly6G^+CD11b^+ neutrophils (ApoE^–/– mice on an HFD; 6 weeks, compared with both NaBut- and water-treated controls): significantly reduced; Th17/Treg cell ratio (ApoE^–/– mice on an HFD; MLNs and spleen): reduced the Th17/Treg cell ratio; iNOS^+ of CD11b^+F480^+ macrophages (ApoE^–/– mice on an HFD; MLNs, not ILNs, compared with controls, but not NaBut-treated mice): significantly decreased; regulatory T cells (ApoE^–/– mice on an HFD; MLNs, not skin-draining lymph nodes or spleen): expanded; TNFa (Legendplex) (RAW 264.7 macrophages [2]; 4 mM 24 h, then LPS 6 h): 3513.15 and 3456.91 and 3852.76 and 3385.25 and 3103.2 and 3863.3; TNFa (Legendplex) (RAW 264.7 macrophages [2]; 12 mM 24 h, then 200 ng/mL LPS 6 h): 1963.6 and 2002.31 and 2185.35 and 1388.16 and 2487.75 and 2408.88; production of IL-6, MCP-1 and GM-CSF (RAW 264.7 macrophages [2]; 12 mM, as effectively as 1.3 mM NaBut): suppressed NF-κB–regulated production of proinflammatory cytokines; butyrate in the colon tissue ([3]; C57BL/6, normal diet): no increase; free butyrate in the intestinal contents ([3]; C57BL/6, normal diet): no significant changes; free butyrate in upper and lower small intestine and ileum tissue ([3]; compared with both PBS- and NaBut-treated mice): significantly more free, active butyrate
